Source: US20210121482A1, “WITHANOLIDES FOR THE TREATMENT OF CACHEXIA” (University of Louisville Research Foundation, Inc., priority 2019, published 2021)
Read-outs that look alike come from different tables or passages of the source.

Tests used:
[1] = test system: Caspase 1, NLRP3, IL-1β, IL-18, HO-1; assay: IHC of NLRP3 inflammasome proteins in tumor samples; assay type: in vivo, mice
Protocol: Immunohistochemistry of Tumor Tissue: For the detection of various proteins, 10 μm thick sections were made from the midsection of tumor samples. A hydrophobic boundary was drawn around the sections and then they were fixed in 3.7% formaldehyde solution for 10 minutes. The slides were washed three times with 1×PBS for 5 minutes each. The sections were then blocked in 2% BSA in PBS for 30 minutes. The sections were then incubated with primary antibodies (1:100 dilution) overnight in a humidity chamber at 4° C. The sections were then washed three times with 1×PBS for 5 minutes. The slides were incubated in appropriate secondary antibodies (1:2000 dilution) for 45-60 minutes. Sections were counterstained with DAPI (1:2500 dilution) for 5 minutes to visualize nuclei. Slides were then washed twice in 1×PBS for 5 minutes, and then mounted for visualization. Nonspecific background staining was determined by performing the above protocol with omitting the inclusion of the primary antibodies. Refer to Table 2 for a complete list of antibodies utilized.

[2] = test system: left ventricular systolic and diastolic function; assay: Echocardiography; assay type: in vivo, mice
Protocol: Left ventricular (LV) systolic and diastolic function were evaluated by transthoracic echocardiography using a Vevo 3100 system and a 40 MHz linear probe (FUJIFILM VisualSonics Inc., Toronto, Ontario, Canada). Mice were anesthetized with isoflurane, maintained at an equivalent surgical depth of anesthesia (induction chamber at 5% with 1.5-2.0 L/min 02 flow, followed by 1.5-2.0% with 1.5-2.0 L/min 02 flow), and placed in the supine position. The skin over the thorax was shaved and then briefly subjected to a depilatory cream. Body temperature was maintained at 37-38° C., and heart rate was monitored using the accompanying Vevo Imaging Station. Briefly, variables that represent diastolic function (E/A ratio, isovolumetric relaxation time (IVRT), and (E/e′) were measured during the resting condition from an apical four-chamber view with conventional pulsed wave tissue Doppler. The E/A ratio was calculated from the peak velocity flow in early diastole (the E wave) to the peak velocity flow in late diastole caused by atrial contraction (the A wave) during resting conditions.
An image was captured along the parasternal short axis and analyzed offline using the Vevo® Lab software. Standard measures of LV structure [i.e., LV internal diameter (LVID) and LV posterior wall thickness (PWT)] and function [i.e., stroke volume (SV), cardiac output (CO), and ejection fraction (EF)] were obtained along the parasternal short axis during resting and stress conditions. In M-mode, wall thickness and chamber dimensions across the sample line were used to calculate anatomical and functional parameters. End-diastolic and end-systolic volumes were estimated from LVID […]. Results from five cardiac cycles during expiration were averaged together and used for between-group and within-group comparisons. Continuous ECG and heart rate monitoring were performed over a period of one hour while the other measurements were collected.

[3] = test system: angiotensinogen (AGT); assay: qPCR of angiotensinogen in tumor tissues; assay type: in vivo, Homo sapiens
Protocol: (§1) Total RNA Extraction and qPCR: Isolation of total RNA from xenografted tumor samples was performed using an RNeasy® Mini Kit (Qiagen Catalog #74104) according to the manufacturer's instructions. Isolation of total RNA from skeletal muscle was performed using an RNeasy® Fibrous Tissue Mini Kit (Qiagen Catalog #74704) according to the manufacturer's instructions. First strand cDNA was synthesized using 1 μg of purified RNA and a commercially available kit (iScript™ cDNA synthesis, Bio-Rad Catalog #170-8891), Quantification of mRNA expression was performed similar to as previously described (Hindi and Kumar, 2016) using the SYBR Green dye method on a StepOnePlus™ system (Applied Biosystems) using gene-specific primers, as shown in Table 1.
Isolation and preparation of total RNA was performed as described in Example 1.

[4] = test system: inflammatory cytokines and NLRP3 inflammasome markers in tumor samples; assay: qPCR of xenografted tumor samples; assay type: in vivo, Homo sapiens
Protocol: as §1

[5] = test system: A2780 cells; assay: Free peritoneal tumor weight (Example 1); assay type: in vivo, mice; conditions: 2 and 6 mg/kg, vs vehicle treated group
Text: Free peritoneal tumors (visible tumors) not associated with an organ were collected and weighed to assess WFA effects. […] At the time of euthanization and tissue collection, tumors associated with the intestines were found most frequently in the vehicle treated group and were of the largest size.

[6] = test system: A2780 ovarian cancer xenograft; assay: Survival and tolerability, A2780 xenograft mice (Example 1)
Protocol: (§2) Tumor-bearing groups received an IP injection of 1.0×10^6 low passage A2780 cells suspended in 100 μl sterile PBS.
(§3) Graphical Display and Statistical Analyses: The majority of the results were expressed as box-and-whisker plots with the box comprised of the first, second, and third quartiles, and the lower and upper whiskers corresponding to the minimum and maximum values, respectively, to display the entire range of data. A Kaplan-Meier curve was used for the survival analysis. Statistical analysis of the data was performed using one-way analysis of variance (ANOVA) followed by Tukey's Honestly Significant Difference Test (HSDT) post hoc analysis or the Mantel-Cox log-rank test to determine statistically significant differences between groups with GraphPad Prism 8.0.1 software for Mac (La Jolla, Calif., USA). A value of P<0.05 was considered statistically significant, unless otherwise specified.

[7] = test system: TA, GA and QF muscles; assay: Muscle mass and TA myofiber CSA (Example 2); assay type: in vivo, mice
Text: Histology and Morphometric Analysis of Skeletal Muscle: Select muscles of the lower limb of the mice were isolated, flash frozen in liquid nitrogen, mounted in O.C.T. embedding medium, and then sectioned using a microtome cryostat. To assess tissue morphology, 10 μm thick transverse sections were cut from the mid-belly of the tibialis anterior (TA) and then subjected to Hematoxylin and Eosin (H&E) staining. Images of H&E-stained TA muscle sections were quantified using Fiji software (National Institute of Health software) to measure myofiber cross-sectional area (CSA). Skeletal myofiber CSA was calculated by analyzing ˜500-700 myofibers per muscle as previously described (32).
Post-mortem, select muscles of the lower extremities, including tibialis anterior (TA), gastrocnemius (GA), and quadriceps femoris (QF), were collected and weighed to detect changes in muscle mass, with results shown in FIG. 14A-14C, respectively. Muscle weights were normalized by the initial body weight (I.B.W.) to account for differences in the size of the mouse/muscle at baseline, while excluding the confounding effect of tumor burden on body weight.

[8] = test system: A2780 ovarian cancer xenograft; conditions: mouse, in vivo
Protocol: as §2, §3

[9] = 2 and 6 mg/kg, vs vehicle treated group
[10] = tumor-bearing, 2 and 4 mg/kg, vs tumor-bearing vehicle

## CC1=C(CO)C(=O)O[C@@H]([C@@H](C)[C@H]2CC[C@H]3[C@@H]4C[C@H]5O[C@]56[C@@H](O)C=CC(=O)[C@]6(C)[C@H]4CC[C@]23C)C1 [WFA, (4β,5β,6β,22R)-4,27-Dihydroxy-5,6:22,26-diepoxyergosta-2,24-diene-1,26-dione]
[1]; 2 mg/kg
  expression of IL-1β, IL-18 and HO-1 in tumor (IHC): drastically lowered the expression of IL-1β and IL-18 and increased the expression of HO-1
[1]; 6 mg/kg
  expression of IL-1β, IL-18 and HO-1 in tumor (IHC): intermediate expression of all three proteins
[1]; [9]
  Caspase 1 and NLRP3 staining in tumor (IHC): reduction in Caspase 1 and NLRP3 staining
[2]; WFA vs vehicle within tumor-free or tumor-bearing groups
  isovolumetric relaxation time (IVRT): no significant differences within the tumor-free or tumor-bearing groups
[2]; tumor-bearing mice, WFA treatment
  cardiac output (CO): similarly normalized
[2]; [10]
  LV mass: significant increase in LV mass
  diastolic dysfunction (E/A ratio, E/e′ ratio): partially improved
[2]; tumor-bearing, WFA 2 mg/kg
  fractional shortening (FS): 57.8±3.6%
[2]; tumor-bearing, WFA 4 mg/kg
  fractional shortening (FS): 55.3±3.2%
[2]; tumor-free animals
  diastolic function: did not affect diastolic function in tumor-free animals
[2]; tumor-free mice, WFA treatment
  HR and CO: did not have any effect on HR or CO in tumor-free mice
[2]; tumor-free or tumor-bearing WFA-treated groups vs tumor-free vehicle
  heart rate: No significant differences in heart rate
[2]; tumor-free, vehicle vs either dose of WFA
  LV mass: No significant difference in LV mass
[3]; WFA 2 mg/kg
  relative transcript levels of angiotensinogen in tumor samples: 0.3676±0.252 fold change
[3]; WFA 4 mg/kg
  relative transcript levels of angiotensinogen in tumor samples: 0.0694±0.144 fold change
[4]; 2 mg/kg, vs vehicle treated group
  relative transcript levels of TNFα, IFNγ, IL-6, IL-8 in tumor: significantly reduced
[4]; 2 mg/kg, vs vehicle treated group (p=0.06)
  relative transcript levels of HO-1 in tumor: trended towards an increase
[4]; 2 mg/kg, vs vehicle treated group (p=0.07)
  relative gene expression of IL-18 in tumor: trend towards reduction
[4]; 6 mg/kg, vs vehicle treated group
  relative mRNA expression of TNFα in tumor: significantly reduced
[4]; 6 mg/kg, vs vehicle treated group (p=0.03)
  relative transcript levels of HO-1 in tumor: significantly increased
[4]; 6 mg/kg, vs vehicle treated group (p=0.07, p=0.09)
  relative expression of IL-6 and IL-8 genes in tumor: trend towards reduction
[4]; 6 mg/kg, vs vehicle treated group (p=0.21)
  relative gene expression of IL-18 in tumor: did not approach the level of statistical significance
[4]; [9]
  reduction in NLRP3 mRNA levels in tumor: not found to be significant
  relative transcript levels of CASP1 in tumor: dose-dependent decrease
  relative transcript levels of IL-1β in tumor: significantly reduced in both WFA treated groups
[5]
  weight of free peritoneal tumors: significantly reduced the size of peritoneal tumors
[5]; at tissue collection
  tumors associated with the intestines: fewer and smaller tumors
[6]; 2 mg/kg, vs WFA 6 mg/kg and vehicle treated groups
  survival (Kaplan-Meier): higher survival rate
[6]; 6 mg/kg IP every three days, tumor-bearing NSG mice
  toxicity of high dose: may be a lethal dose
[6]; 6 mg/kg, vs vehicle treated group (p=0.06)
  survival (Kaplan-Meier): trend towards an increase in survival
[7]; tumor-bearing, 2 and 4 mg/kg, vs vehicle-treated
  normalized wet weight of TA and GA muscles: statistically significant increase in normalized wet weight of the TA and GA muscles
[7]; tumor-bearing, WFA 2 mg/kg
  average myofibrillar cross-sectional area (CSA) in TA muscle: 1629.72±94.96 μm2
[7]; tumor-bearing, WFA 4 mg/kg
  average myofibrillar cross-sectional area (CSA) in TA muscle: 1748.13±68.90 μm2
[7]; tumor-free, 4 mg/kg, vs vehicle-treated, normalized by initial body weight
  normalized weight of TA, GA and QF muscles: significant increase in normalized weight of the TA, GA, and QF muscles
[7]; tumor-free, WFA 2 mg/kg
  average myofibrillar cross-sectional area (CSA) in TA muscle: 1916.39±85.72 μm2
[7]; tumor-free, WFA 4 mg/kg
  average myofibrillar cross-sectional area (CSA) in TA muscle: 1904.98±80.50 μm^2
[8]
  toxicity of high dose: turned out to be toxic
